In article PMC11817512, “In Slico Screening and In Vitro Identification of Hyperuricemia-Inhibiting Peptides from Trachurus japonicus” (Foods, 2025):
Where a SMILES comes first, the peptide text is derived from it. Where no end group is shown, it is not given here.

Key:
[1] = molecular target: T1, XOD (Bos taurus, UniProt P80457); experiment: In vitro XOD inhibitory assay; format: biochemical; details: XOD from milk, xanthine substrate, PBS pH 7.4, 37 °C, absorbance 295 nm, mean ± SD, n = 3; as restated in section 3.5.1; read-out: IC50 for XOD (three-decimal values)
T1 construct: Xanthione oxidase (XOD) from milk; purchased Solarbio Co., Ltd. (Beijing, China); host or cells: milk
T1 sequence (P80457 whole entry): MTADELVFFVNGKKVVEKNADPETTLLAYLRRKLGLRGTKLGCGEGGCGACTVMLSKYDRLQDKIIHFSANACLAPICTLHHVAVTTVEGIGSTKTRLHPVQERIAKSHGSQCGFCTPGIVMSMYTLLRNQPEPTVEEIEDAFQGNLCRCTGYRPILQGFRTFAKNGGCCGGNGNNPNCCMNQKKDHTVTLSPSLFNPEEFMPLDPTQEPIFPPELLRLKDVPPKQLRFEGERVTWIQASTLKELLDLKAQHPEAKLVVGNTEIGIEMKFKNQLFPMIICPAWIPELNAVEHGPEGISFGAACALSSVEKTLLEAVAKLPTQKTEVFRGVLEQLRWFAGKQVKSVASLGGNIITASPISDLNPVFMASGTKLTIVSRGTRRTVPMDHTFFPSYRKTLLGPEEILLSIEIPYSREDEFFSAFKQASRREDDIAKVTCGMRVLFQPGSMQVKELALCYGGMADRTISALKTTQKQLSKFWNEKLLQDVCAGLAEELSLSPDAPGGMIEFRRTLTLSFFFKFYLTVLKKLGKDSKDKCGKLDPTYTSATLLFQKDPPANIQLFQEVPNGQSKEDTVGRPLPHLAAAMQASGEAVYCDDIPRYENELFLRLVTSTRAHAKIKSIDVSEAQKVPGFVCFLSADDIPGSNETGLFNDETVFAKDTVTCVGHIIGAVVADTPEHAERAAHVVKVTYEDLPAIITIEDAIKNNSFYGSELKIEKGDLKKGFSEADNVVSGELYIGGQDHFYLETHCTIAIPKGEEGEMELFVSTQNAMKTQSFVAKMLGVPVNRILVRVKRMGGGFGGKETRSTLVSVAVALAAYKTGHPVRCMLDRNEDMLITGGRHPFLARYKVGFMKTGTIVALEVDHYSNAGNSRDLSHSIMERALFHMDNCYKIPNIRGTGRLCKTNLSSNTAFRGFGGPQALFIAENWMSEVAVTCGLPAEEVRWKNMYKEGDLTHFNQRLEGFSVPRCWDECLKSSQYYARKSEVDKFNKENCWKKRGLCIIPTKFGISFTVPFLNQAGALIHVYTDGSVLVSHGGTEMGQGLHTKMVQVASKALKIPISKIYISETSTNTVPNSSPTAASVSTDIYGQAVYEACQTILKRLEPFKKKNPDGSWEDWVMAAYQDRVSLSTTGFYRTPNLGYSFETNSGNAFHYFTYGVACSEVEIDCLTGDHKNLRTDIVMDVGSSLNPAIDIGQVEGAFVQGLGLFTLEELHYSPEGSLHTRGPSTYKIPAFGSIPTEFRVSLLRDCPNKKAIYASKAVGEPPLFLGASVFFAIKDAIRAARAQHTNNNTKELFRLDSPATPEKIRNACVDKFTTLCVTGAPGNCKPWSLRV
Description: Xanthione oxidase (XOD) from milk, 1,1-Diphenyl-2-picrylhydrazyl (DPPH), 2,2′-azino-bis(3-ethylbenzothiazoline-6-sulfonic acid) (ABTS), a xanthine oxidase assay kit, and glutathione (GSH) were purchased from Solarbio Co., Ltd. (Beijing, China). Allopurinol was purchased from Aladdin Co. Ltd. (Shanghai, China). UA was purchased from Sigma-Aldrich Co. LLC. (St. Louis, MO, USA). A Cell Counting Kit-8 (CCK-8) was obtained from APExBIO Technology LLC. (Houston, TX, USA). Other chemicals were provided by Sinopharm Chemical Reagent Co., Ltd. (Shanghai, China) and were of analytical grade.
The in vitro XOD inhibitory assay was carried out by adopting the approach of Zhao et al., with minor alterations. Xanthine and XOD were, respectively, dissolved in phosphate-buffered solution (PBS, with a pH value of 7.4) at concentrations of 1.5 mM and 0.1 U/mL. Peptides of different concentrations (10, 20, 40, 80, and 160 mM) were dissolved in the PBS. A total of 120 μL of the sample solution, 150 μL of PBS, and 100 μL of XOD solution were combined and allowed to react thoroughly at 37 °C for 15 min. Subsequently, 120 μL of xanthine solution was added and the reaction was continued for an additional 20 min. Eventually, 150 μL of 1 M HCl was added to halt further enzymatic activity, and the absorbance was determined at 295 nm by means of an ultraviolet spectrophotometer (TU-1810PC, Purkinje, Beijing, China). The XOD inhibition rate was calculated according to Equation (1).XOD inhibition rate (%) = [1 − (A1 − A3)/(A2 − A4)] × 100%(1) where A1 is the absorbance after the mixed reaction of the inhibitor, XOD, and xanthine; A2 is the absorbance after the reaction of xanthine and XOD without adding the inhibitor; A3 is the absorbance of the sample and xanthine without adding XOD; and A4 is the absorbance of the xanthine solution without adding XOD and the inhibitor. […]

[2] = tested on: HK-2 cells
Description: HK-2 cells were procured from the National Collection of Authenticated Cell Cultures (SCSP-511, Shanghai, China). The cytotoxicity of the peptides was appraised through a CCK-8 assay in line with the methodology of Gan, Cao, Cai, Xiang, Li, and Luan [30]. HK-2 cells were inoculated in 96-well plates (3 × 10^4 cells per well) and cultivated in Dulbecco’s Modified Eagle Medium (DMEM; provided by Life Technologies Corp., New York, NY, USA) supplemented with 10% fetal bovine serum (FBS; from Life Technologies Corp., New York, NY, USA) at 37 °C in an atmosphere containing 5% CO2 for a duration of 24 h. Peptides were introduced into the wells, and, following a 24 h incubation period, 10 μL of CCK-8 reagent was added to each well and incubated for 1 h. The absorbance was gauged at 450 nm using a microplate reader (Spark, Tecan, Austria).

[3] = tested on: URAT1; experiment: URAT1 urate transport / protein expression at the cellular level (Western blot); format: cell-based; details: HK-2 cells
Description: (§1) The protein expressions of URAT1 and GLUT9 within cells were detected by means of Western blot, in accordance with the method of Mao, Jiang, and Mao [32]. The primary antibodies were as follows: URAT1 (1:1000; Cat#14937-1AP; Proteintech, Wuhan, China), GLUT9 (1:1000; Cat#ab223470; Abcam, Shanghai, China), and β-actin (1:5000; Cat#ab6276; Abcam). The secondary antibodies were as follows: Goat Anti-Mouse IgG H&L (HRP) (Cat#ab205719; Abcam) and Goat Anti-Rabbit IgG H&L (HRP) (Cat#ab6721; Abcam). The protein levels were quantitatively gauged using ImageJ software (1.8.0.112).

[4] = tested on: HK-2 cells; experiment: Uric acid (UA) level in hyperuricemia HK-2 cell model; format: cell-based; details: 24 h, then 2.5 mM adenosine 30 h and XOD 12 h, n = 3
Protocol: The cell modeling process was carried out by following the method of Mao et al., with certain modifications. HK-2 cells were cultured in DMEM supplemented with 10% FBS at 37 °C under a 5% CO2 environment for 24 h. […] The control group and the model group were also cultured in the medium for the same period of time. Subsequently, the experimental group, the positive group, and the model group were incubated with 2.5 mM adenosine for 30 h and then further incubated with XOD (at a concentration of 0.005 U/mg) for 12 h. The content and concentration of UA in the cell supernatant were measured using a XOD assay kit.

[5] = tested on: GLUT9; experiment: GLUT9 urate transport / protein expression at the cellular level (Western blot); format: cell-based; details: HK-2 cells
Description: as §1

Row | Molecule | IC50 [1] [mM] | cell viability of HK-2 at higher doses [2] | reduction of urate transport by URAT1 in cells [3] | reduction of UA levels in HK-2 cells, peptides ([4]; peptide 4 mM (section 3.4)) [%] | reduction of urate transport by GLUT9 in cells [5] | reduction of UA levels in HK-2 cells, allopurinol ([4]; 0.1 mM allopurinol) [%]
1 | C[C@H](N)C(=O)NCC(=O)N[C@@H](Cc1ccccc1)C(=O)O [AGF] (H-Ala-Gly-Phe-OH) | 48.6 ± 9.95 | slight reductions in cell viability | – | – | – | –
2 | N[C@@H](CC(=O)O)C(=O)N[C@@H](Cc1ccccc1)C(=O)O [DF] (H-Asp-Phe-OH; N-terminus and C-terminus assumed) | – | slight reductions in cell viability | can curtail the transport of urate by URAT1 in cells | 45.57 | can effectively diminish the transport of urate by GLUT9 within cells | –
3 | NC(=O)CC[C@H](N)C(=O)N1CCC[C@H]1C(=O)N[C@@H](CO)C(=O)N[C@@H](Cc1ccccc1)C(=O)O [QPSF] (H-QPSF-OH) | 38.4 ± 7.25 | slight reductions in cell viability | – | – | – | –
4 | Oc1ncnc2[nH]ncc12 [allopurinol, reference compound] | – | – | – | – | – | 52.25
5 | AGDDAPR [AGDDAPR] | 66 ± 10.9 | slight reductions in cell viability | – | – | – | –
